According to patent US20210371784A1, “CELL-CONTAINING VESSEL AND METHOD FOR PRODUCING NEURAL CELL-CONTAINING SPHEROID” (RICOH COMPANY, LTD., priority 2020, published 2021):

System: spheroids of human iPSC-derived neurons and human iPSC-derived astrocytes
Assay: Calcium transient assay of neural cell-containing spheroids in the presence of a drug
Assay type: cell-based
Details: 4-AP final concentration 30 μM, 10-minute period immediately following the addition, spheroids cultured 7 weeks
Source text: Spheroids were produced using human iPSC-derived neurons and human iPSC-derived astrocytes, and the drug responsiveness was investigated. First, human iPSC-derived neurons (mixed neurons, manufactured by Elixirgen Scientific, Inc.) and human iPSC-derived astrocytes (Human iPS-derived Astrocytes (mature), manufactured by Xcell Science Inc.) were mixed so as to achieve cell numbers per well that satisfied the cell numbers indicated below in Table 3 for test numbers 3-1 and 3-2. Subsequently, each cell mixture was inoculated onto a spheroid production plate and cultured to produce a spheroid. […]
Subsequently, following culturing for 7 weeks, each of the spheroids was subjected to a calcium transient assay in the presence of a drug. […] In the calcium transient assays, excessive excitation of the neurons was detected as an increase in oscillation frequency or an elevated baseline.
Specifically, first, each spheroid was transferred to a measurement plate, a calcium-sensitive fluorescent dye (EarlyTox Cardiotoxicity Kit, manufactured by Molecular Devices, LLC) was added to the medium, and the mixture was incubated. Subsequently, 4-AP was added to the medium in an amount sufficient to achieve a final concentration of 30 μM, and fluorescence measurements were conducted at 0.6-second intervals for the 10-minute period immediately following the addition. […]

SMILES: Nc1ccncc1 [4-AP, 4-aminopyridine]
- change in the waveform of the oscillations (drug responsiveness) (test number 3-1, cell number ratio (neurons:astrocytes) 1:1): the expected type of change in the waveform of the oscillations was confirmed
- change in the waveform of the oscillations (drug responsiveness) (test number 3-2, cell number ratio (neurons:astrocytes) 4:1): the expected type of change in the waveform of the oscillations could not be confirmed
